Consider 1 compound from ChEMBL document CHEMBL1147088, “Small molecule obatoclax (GX15-070) antagonizes MCL-1 and overcomes MCL-1-mediated resistance to apoptosis” (Proc Natl Acad Sci U S A, 2007).

Experiment [1] in a line: Cytotoxicity against mouse B16-F1 cells transfected with luciferase siRNA assessed as assessed as annexin 5 uptake at 100 nM after 24 hrs by flow cytometry. The class given is functional. For orientation: Flow cytometry measures light scatter and fluorescence of single cells or particles in a stream.
Experiment [2] is described as follows: Cytotoxicity against mouse B16-F1 cells transfected with MCL1 siRNA assessed as assessed as annexin 5 uptake at 100 nM after 24 hrs by flow cytometry. The class given is functional.

On to `CC(C)C[C@H](NC(=O)[C@H](Cc1ccccc1)NC(=O)c1cnccn1)B(O)O` [BORTEZOMIB], for which the Activity in experiment [1] is 14%; in experiment [2], 42%.
